The results in this text go back to US20110034420A1, “NOVEL CRYSTALLINE FORM B OF (2R)-(3-AMINO-2-FLUOROPROPYL)PHOSPHINIC ACID” (priority 2008, published 2011).

The data set can be described thus: isoelectric point of the zwitterion. The class given is physicochemical. As to conditions: pH at which it may be crystallised. An excerpt:
(2R)-(3-amino-2-fluoropropyl)phosphinic acid is a zwitterion, that may be crystallised at the isoelectric point, in this case approximately at a pH of 5.3.

Take `NC[C@@H](F)C[PH](=O)O` [(2R)-(3-amino-2-fluoropropyl)phosphinic acid]: the “isoelectric point (pH)” value is reported as around 5.3 pH.
